Experimental data reported in article PMC3596083 (Beilstein Journal of Organic Chemistry, 2013).
Values joined by “and” are separate entries in the source; they are usually repeats but may differ in a detail not shown here. Equal values may be shown once. “Also recorded” adds a separate entry of the source. Read-outs that look alike come from different tables or passages of the source.

How the values were obtained:
[1] = target: T1, GABAA-receptors (α1-GFP + β2 + γ2Long) expressed in CHO cells (Homo sapiens, UniProt P14867+P47870); test: Whole-cell patch-clamp recordings with fast perfusion on CHO cells transiently expressing GABAA-receptors; type: cell-based; details: for changes in the current: application of 10 mM
T1 construct: expressed in transfected cells; host or cells: CHO-K1 (ATCC), transient transfection with Lipofectamine 2000
Experimental: (§1) The investigations in this study were performed by using a standard ^36Cl^−-flux assay in mouse brain synaptoneurosomes. […] Moreover, ^36Cl^−-flux assays were carried out by using a 15 s incubation time. […] The activity of synthesized compounds was tested by using CHO cells transiently expressing GABAA-receptors in the configuration (α1-GFP + β2 + γ2Long). To analyze the functional properties of the compounds, we performed monitoring of ionic currents using whole-cell patch-clamp techniques. […] Then we applied different concentrations of the studied compounds and estimated the minimal concentration that induced currents and, if possible, their EC50.
Cell culture and transient transfection
Chinese Hamster Ovary (CHO-K1) cells were obtained from the American Type Culture Collection (ATCC, Molsheim, France) and maintained as previously described. One day before the transfection, cells were plated on the coverslips (12–14 mm in diameter), which were placed inside 35 mm cell culture dishes with 2 mL of medium. CHO cells were transfected with a total 3 µg cDNA of α1-GFP + β2 + γ2Long (ratio 1:1:1) using the Lipofectamine 2000 transfection protocol (Life Technology, USA). Three hours after the initial exposure of the cells to the cDNAs, a fresh […] solution replaced the old one.
Electrophysiological recordings were performed from fluorescent cells 48–72 hours after […]
Electrophysiological recordings
Whole-cell recordings were conducted on CHO-K1 cells at room temperature (20–25 °C) using an EPC-9 amplifier (HEKA Elektronik, Germany). Cells were continuously superfused with external solution containing (mM): NaCl 140, CaCl2 2, KCl 2.8, MgCl2 1, HEPES 20, glucose 10; pH 7.3; 320–330 mOsm. The patch pipette solution contained (mM): CsCl 140, MgCl2 2, MgATP 2, NaGTP 0.4, HEPES/CsOH 10, BAPTA/KOH 20; pH 7.3; 290 mOsm.
Pipettes were pulled from borosilicate glass capillaries (Harvard Apparatus Ltd, USA) and had resistances of 5–8 MΩ.
For rapid replacement of solutions, a system of two parallel rectangular tubes, 100 µm in diameter, located at a distance of 40–50 µm from the tested cell, was used. The movement of tubes was controlled by a computer-driven fast exchange system (SF 77A Perfusion Fast-Step, Warner, USA). As measured by open tip electrode controls (1/10 NaCl), in this system a 20–80% solution exchange time was within 2–3 ms. Cells with a low input resistance (<150 MΩ) were excluded from analysis.
For quantitative estimations of agonist action, dose-response relationships were fitted by the […]
I = Imax / (1 + (EC50/ [C])n) where I is the current amplitude induced by the agonist at concentration [C], Imax is the maximum response of the cell, n is the Hill coefficient and EC50 is the concentration for which a half-maximum response is induced. Concentration-response relationships were constructed using at least four points. […]

GABAA-receptors [2] = system: GABAA-receptors; design: method as in PMID 12113824; details: cited from earlier work; for agonist character on GABAA-channels: chloride-flux assays on synaptoneurosomes
GABAA-receptors [3] = test: Standard 36Cl−-flux assay in mouse brain synaptoneurosomes (Carlier et al.); type: cell-based; details: ratio of the EC50 values of ref 13
Experimental: as §1

[4] = whole-cell currents, mean ± error over x tested cells, read-out: EC50, mean

T1 sequence (P14867 28-456): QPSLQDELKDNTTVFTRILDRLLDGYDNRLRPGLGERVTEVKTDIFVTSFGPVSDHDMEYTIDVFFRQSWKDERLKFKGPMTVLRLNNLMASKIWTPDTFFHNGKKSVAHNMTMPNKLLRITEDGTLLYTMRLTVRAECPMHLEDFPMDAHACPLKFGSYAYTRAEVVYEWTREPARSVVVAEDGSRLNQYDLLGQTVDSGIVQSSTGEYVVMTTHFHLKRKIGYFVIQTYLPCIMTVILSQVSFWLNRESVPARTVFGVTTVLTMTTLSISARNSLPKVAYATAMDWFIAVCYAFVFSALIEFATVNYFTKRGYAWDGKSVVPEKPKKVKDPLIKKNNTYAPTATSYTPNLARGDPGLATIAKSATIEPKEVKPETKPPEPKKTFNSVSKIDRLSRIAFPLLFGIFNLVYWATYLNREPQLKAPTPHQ
T1 sequence (P47870 25-512 limits assumed): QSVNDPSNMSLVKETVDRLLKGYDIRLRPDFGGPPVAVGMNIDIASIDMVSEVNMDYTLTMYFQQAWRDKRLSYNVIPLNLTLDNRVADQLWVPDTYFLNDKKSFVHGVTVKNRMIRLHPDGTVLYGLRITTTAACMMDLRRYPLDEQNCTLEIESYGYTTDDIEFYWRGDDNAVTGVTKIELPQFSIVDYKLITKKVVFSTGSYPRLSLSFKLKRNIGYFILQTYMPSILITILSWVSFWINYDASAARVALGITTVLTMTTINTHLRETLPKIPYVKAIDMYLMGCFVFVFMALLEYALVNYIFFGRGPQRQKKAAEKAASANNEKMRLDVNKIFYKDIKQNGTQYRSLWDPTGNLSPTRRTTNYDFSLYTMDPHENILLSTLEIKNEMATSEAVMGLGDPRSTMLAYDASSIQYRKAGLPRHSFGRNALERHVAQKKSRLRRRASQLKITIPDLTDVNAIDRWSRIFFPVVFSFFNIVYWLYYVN
T1 sequence (P18507 40-475 partner): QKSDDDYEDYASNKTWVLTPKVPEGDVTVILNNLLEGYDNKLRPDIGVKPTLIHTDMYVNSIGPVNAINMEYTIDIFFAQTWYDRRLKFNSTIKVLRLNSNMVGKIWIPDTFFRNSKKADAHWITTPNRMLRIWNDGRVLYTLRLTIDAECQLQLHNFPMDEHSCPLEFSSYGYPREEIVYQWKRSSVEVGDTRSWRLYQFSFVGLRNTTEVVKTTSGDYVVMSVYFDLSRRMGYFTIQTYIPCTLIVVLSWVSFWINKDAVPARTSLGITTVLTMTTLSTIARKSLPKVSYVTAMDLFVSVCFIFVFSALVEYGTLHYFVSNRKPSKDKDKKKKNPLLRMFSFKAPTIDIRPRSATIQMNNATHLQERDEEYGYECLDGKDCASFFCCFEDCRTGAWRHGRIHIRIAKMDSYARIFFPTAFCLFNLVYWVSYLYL

Compound	EC50 [1, 4] [mM]	melting point [°C]	agonist character on GABAA-channels (GABAA-receptors [2])	other results
Cl.Cl.NCCCNC(=O)CCCN [7b]	1.08 ± 0.14	140 to 142	–	currents induced compared with GABA ([1]; at concentrations of 10 mM): comparable to those for GABA 30–100 µM
Cl.Cl.NCCCC(=O)NCc1ccc(CN)cc1	–	251 to 253	–	–
Cl.Cl.NCCCC(=O)NCCN [7a]	–	144 to 146	partial, full or superagonists	current amplitude ([1]; at 2.6 mM, x = 4): 10–30 pA
Cl.Cl.NCCCCCCNC(=O)CCCN [7d]	5.25 ± 0.56	147 to 150	–	activation threshold [1]: about 100 µM; EC50 ([1]; example concentration-response curve (Figures 2B, 5C), read-out: EC50 from the concentration dependence shown in the figure): ~5 mM and 5.1 mM
NCCCC(=O)NCCCCNC(=O)CCCN [4a]	–	–	partial, full or superagonists	changes in the current ([1]; x = 4): 0 pA
NCCCC(=O)NCCCCCCCCNC(=O)CCCN [4c]	–	–	partial, full or superagonists	induction of whole-cell currents ([1]; concentration of 15 mM): not able to induce currents
NCCCC(=O)NCCCCCCNC(=O)CCCN [4b]	–	–	superagonist; also recorded: partial, full or superagonists	changes in the current ([1]; x = 4): 0 pA; EC50 fold higher than for GABA (GABAA-receptors [3]): more than 30 fold; EC50 (GABAA-receptors [2]; 36Cl−-flux, mouse brain synaptoneurosomes, 15 s incubation, read-out: EC50 (Cl− uptake)): 0.733 mM; maximum Cl− uptake higher than that achieved by GABA (GABAA-receptors [2]; 36Cl−-flux, mouse brain synaptoneurosomes): about 50%
Cl.Cl.NCCCCCCCCNC(=O)CCCN [7e]	–	136 to 138	–	current amplitude ([1]; at 5 mM, x = 3): 10–20 pA
NCCCCNC(=O)CCCN [7c]	1.75 ± 0.33	–	partial, full or superagonists	–
